Experimental data: patent US8153385B2, “Target protein and target gene in drug designing and screening method” (Reverse Proteomics Research Institute Co., Ltd., priority 2004, dated 2012)
Where a name gives a salt, the structure may show the parent alone.

Target: T1, FLJ13397 clone-derived protein (CARP) (Homo sapiens, UniProt Q9H8M7)
T1 construct: A human full-length cDNA clone was expressed as a protein with an N-terminal His tag; His tag (pDEST17 Gateway vector) (N); made in house; host or cells: Escherichia coli BL21star(DE3)pLysS
T1 sequence (Q9H8M7 1-445): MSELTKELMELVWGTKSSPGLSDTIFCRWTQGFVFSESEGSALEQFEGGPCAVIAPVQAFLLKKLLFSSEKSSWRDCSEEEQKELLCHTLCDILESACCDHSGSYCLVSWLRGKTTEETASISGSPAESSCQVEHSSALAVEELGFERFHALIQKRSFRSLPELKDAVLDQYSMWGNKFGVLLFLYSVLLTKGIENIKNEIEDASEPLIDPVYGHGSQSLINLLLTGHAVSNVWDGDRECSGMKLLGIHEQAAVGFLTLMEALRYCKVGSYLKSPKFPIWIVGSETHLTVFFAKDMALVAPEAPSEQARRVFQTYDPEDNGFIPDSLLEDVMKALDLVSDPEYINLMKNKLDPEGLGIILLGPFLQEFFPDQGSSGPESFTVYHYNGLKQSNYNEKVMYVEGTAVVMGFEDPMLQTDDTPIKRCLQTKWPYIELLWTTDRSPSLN
Experiment: SEC/MS (size exclusion chromatography / mass analysis) interaction analysis between FLJ13397 clone-derived protein and compounds
Type: binding
Description: BP-reaction was performed on human full-length cDNA clone and the cloning vector Gateway pDONR201 by the PCR cloning method using the Invitrogen Gateway system to yield an entry clone. LR-reaction was performed on this entry clone with the destination vector pDEST17 (Gateway System) and LR Clonase at 25° C. for 60 minutes to yield an expression plasmid. Escherichia coli competent cell BL21star(DE3)pLysS were transformed with this expression plasmid, a clone incorporating the expression vector was selected, and a frozen stock was prepared. The transformant was inoculated into LB medium and precultured, after which it was transferred into SB medium and cultured to induce the expression by IPTG, and the cells were stored frozen.
A human full-length cDNA clone was expressed as a protein with an N-terminal His tag. This clone was purified using BioRobot 8000 (Qiagen) or ACTA Crystal (Amersham). […] In the purification with ACTA Crystal, affinity purification using a HisTrap HP column was followed by gel filtration purification using the Gel Filtration Column HiLoad 16/60 or a 10/30 Superdex 75 prep grade column. The purified fraction was used for interaction analysis after being subjected to SDS-PAGE to verify the estimated molecular weight and purity.
To analyze the interactions between commonly used drugs and proteins expressed from human full-length cDNA clones while keeping both the proteins and the compounds in non-modified, non-immobilized state, size exclusion chromatography (SEC) and mass analysis were used in combination (FIGS. 1 and 2). The specific procedures are shown below.
The compound-protein mixture prepared in step 1 was subjected to chromatography using an SEC column, the compound and the protein were separated by SEC, and the bound compound or compound that interacted with the protein in the protein fraction was analyzed using a mass analyzer.
Protein concentrations were measured using BCA Protein Assay (PIERCE), in consideration of the purity calculated by SDS-PAGE.
Mass analysis was performed using LCQ DECA XP (Thermoelectron) or Q-TOFmicro (Micromass), equipped with an ESI probe. The LC pump used was Agilent 1100 (Yokogawa Analytical Systems), and the autosampler used was HTC-PAL (CTC Analytics) equipped with a cooling stacker.
In the SEC method using a 384-well spin column, Unifilter 100 (Whatman), packed with 10 μL (dry volume) of Bio-Gel P6 (BIO-RAD) and swollen with milliQ water, was used as the SEC column. […] The SEC spin column was mounted on an acetonitrile-aliquoted 384-well U-bottom plate and centrifuged; the SEC spin column filtrate, which is a protein fraction, was retrieved in 50% acetonitrile. The protein precipitate produced by the acetonitrile was removed via centrifugation and filtration for protein removal; the resulting filtrate was concentrated by centrifugation and re-dissolved in 10 μL of 50% methanol to obtain a mass analysis sample. The mobile phase supplied to the mass analyzer was 0.1% formic acid/50% methanol solution in the positive ion mode, and 0.1% ammonia/50% methanol solution in the negative ion mode; these mobile phases were used at a flow rate of 40 μL/min. 2-μL of mass analysis samples were injected using an autosampler at 2-Minute intervals; the mass spectral intensity of the compound was measured to obtain the spectral intensity of the pharmaceutical compound contained in the SEC spin column filtrate (protein fraction eluted from SEC).

[1] = compound 1 μM, protein 0 μM (protein-free reference)
[2] = compound 1 μM, protein 23.75 μM
[3] = compound 10 μM, protein 0 μM (protein-free reference)
[4] = compound 10 μM, protein 23.75 μM
[5] = compound 10 μM, protein 47.5 μM
[6] = compound 100 μM, protein 0 μM (protein-free reference)
[7] = compound 100 μM, protein 23.75 μM
[8] = compound 100 μM, protein 47.5 μM
[9] = compound 250 μM, protein 0 μM (protein-free reference)
[10] = compound 250 μM, protein 23.75 μM
[11] = compound 250 μM, protein 47.5 μM

Compound	spectrum intensity of the extracted mass range (compound in SEC spin column filtrate) [1]	spectrum intensity of the extracted mass range (compound in SEC spin column filtrate) [2]	spectrum intensity of the extracted mass range (compound in SEC spin column filtrate) (compound 1 μM, protein 47.5 μM)	spectrum intensity of the extracted mass range (compound in SEC spin column filtrate) [3]	spectrum intensity of the extracted mass range (compound in SEC spin column filtrate) [4]	spectrum intensity of the extracted mass range (compound in SEC spin column filtrate) [5]	spectrum intensity of the extracted mass range (compound in SEC spin column filtrate) [6]	spectrum intensity of the extracted mass range (compound in SEC spin column filtrate) [7]	spectrum intensity of the extracted mass range (compound in SEC spin column filtrate) [8]	spectrum intensity of the extracted mass range (compound in SEC spin column filtrate) [9]	spectrum intensity of the extracted mass range (compound in SEC spin column filtrate) [10]	spectrum intensity of the extracted mass range (compound in SEC spin column filtrate) [11]
COC(=O)Nc1nc2ccccc2[nH]1 [Carbendazim]	20852664	16443963	24660680	22203544	21673683	32996198	20562919	35342827	65044479	34177767	129995989	148437211
Oc1ccc(CCN2CCC(Nc3nc4ccccc4n3Cc3ccc(F)cc3)CC2)cc1 [Desmethyl-astemizole]	12076364	10091649	10876345	6489161	12628724	26276867	85510154	141884756	225675004	135192715	339921213	728918987
COC(=O)Nc1nc2ccc(S(=O)(=O)c3ccccc3)cc2[nH]1 [Fenbendazole Sulfone]	4524987	2681468	2967134	9471873	13569838	12568548	4055561	63176239	88590858	5180253	165761033	286102392
OCCOCCN1CCN(C(c2ccccc2)c2ccc(Cl)cc2)CC1 (stereo not drawn) [Hydroxyzine]	112855827	126033923	89527484	134387910	108540593	115214088	300477422	567712336	554713461	922692583	919366054	1073610880
CC[C@@H](C(=O)[C@@H](C)[C@@H](O)[C@H](C)CCc1ccc(C)c(O)c1C(=O)O)[C@H]1O[C@](CC)([C@H]2CC[C@](O)(CC)[C@H](C)O2)C[C@@H]1C [Lasalocid sodium salt]	9674294	11601595	10467838	13154726	20062681	46504126	945932706	2538387120	3226817361	2174989976	9287976762	9802098210
COC(=O)Nc1nc2ccc(C(=O)c3ccccc3)cc2[nH]1 [Mebendazole]	495347	480780	495499	525296	777305	725295	482901	15054045	9517765	444136	32097734	43484997
COC(=O)Nc1nc2ccc(C(=O)c3cccs3)cc2[nH]1 [Nocodazole]	8235638	5202611	3977550	4879694	6159010	9316181	6162151	33749400	37180973	9512433	131043824	227971112
COC(=O)Nc1nc2ccc([S+]([O-])c3ccccc3)cc2[nH]1 (stereo not drawn) [Oxfendazole]	23723676	29471243	35025210	28662280	41004899	42911925	106348780	160312456	180803127	128622627	264420112	506800735
